Experimental data reported in patent US7737127B2, “2-propynyl adenosine analogs having A2A agonist activity and compositions thereof” (University of Virginia Patent Foundation, priority 2001, dated 2010).
Like-named read-outs stand apart in the source and are kept apart here.

Experiments:
human neutrophils = experiment: Human neutrophil oxidative activity, luminol-enhanced chemiluminescence; assay type: cell-based; details: for EC50: Homo sapiens, Neutrophil, read-out: PMN oxid (-log EC50) (converted); for EC50 / PMN oxid (-log EC50): human neutrophil experiment w/o Rolipram; for PMN oxid + roli (-log EC50): human neutrophil experiment w/Rolipram
Method in brief: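 Purified human neutrophils (5–10×10^5/ml) pre-incubated 30 min at 37 °C with the A2A agonist, ± rolipram and ± TNF-α (1 U/ml), then stimulated with fMLP (1 μM final). Peak luminol-enhanced chemiluminescence expressed as percent of no-agonist control. EC50 from three donors.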

human A1 AR = target: T1, human A1 AR (Homo sapiens, UniProt P30542); experiment: Radioligand competition binding (125I-ABA) to human A1 AR in CHO K1 cell membranes; details: for Ki: Ki from competition binding, 125I-ABA, CHO K1 cell membranes; for A1/A2A: selectivity ratio A1 over A2A
T1 sequence (P30542 1-326): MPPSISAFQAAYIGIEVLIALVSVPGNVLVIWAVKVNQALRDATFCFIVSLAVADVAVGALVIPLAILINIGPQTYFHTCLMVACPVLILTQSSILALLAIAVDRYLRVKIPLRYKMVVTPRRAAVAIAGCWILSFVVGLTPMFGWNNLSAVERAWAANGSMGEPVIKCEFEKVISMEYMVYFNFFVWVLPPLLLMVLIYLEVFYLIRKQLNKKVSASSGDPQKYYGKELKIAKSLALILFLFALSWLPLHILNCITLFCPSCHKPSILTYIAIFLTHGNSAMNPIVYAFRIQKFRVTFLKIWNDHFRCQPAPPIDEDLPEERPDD
Procedure: (§1) Sf9 cells were cultured in Grace's medium supplemented with 10% fetal bovine serum, 2.5 μg/ml amphotericin B and 50 μg/ml gentamycin in an atmosphere of 50% N2/50% O2. […] Infected cells were harvested 3 days post-infection and washed twice in insect PBS (PBS pH 6.3). Cells were then resuspended in lysis buffer (20 mM HEPES pH 7.5, 150 mM NaCl, 3 mM MgCl2, 1 mM β-mercaptoethanol (BME), 5 μg/mL leupeptin, 5 μg/mL pepstatin A, 1 μg/mL aprotinin, and 0.1 mM PMSF) and snap frozen for storage at −80° C. Cells were thawed on ice, brought to 30 mL total volume in lysis buffer, and burst by N2 cavitation (600 psi for 20 minutes). A low-speed centrifugation was performed to remove any unlysed cells (1000×g for 10 minutes), followed by a high-speed centrifugation (17,000×g for 30 minutes). The pellet from the final centrifugation was homogenized in buffer containing 20 mM HEPES pH 8, 100 mM NaCl, 1% glycerol, 2 μg/mL leupeptin, 2 μg/mL pepstatin A, 2 μg/mL Aprotinin, 0.1 mM PMSF, and 10 μM GDP using a small glass homogenizer followed by passage through a 26 gauge needle. Membranes were aliquoted, snap frozen in liquid N2, and stored at −80° C.
(§2) Binding experiments were performed in triplicate with 5 μg (A2A) or 25 μg (A1 and A3) membrane protein in a total volume of 0.1 mL HE buffer (20 mM HEPES and 1 mM EDTA) with 1 U/mL adenosine deaminase and 5 mM MgCl2 with or without 50 μM GTPγS. Membranes were incubated with radioligands at room temperature for three hours (for agonists) or two hours (for antagonists) in Millipore Multiscreene® 96-well GF/C filter plates and assays were terminated by rapid filtration on a cell harvester (Brandel, Gaithersburg, Md.) followed by 4×150 μl washes over 30 seconds with ice cold 10 mM Tris-HCl, pH 7.4, 10 mM MgCl2.

[1] = target: recombinant human A2A receptors (Homo sapiens, UniProt P29274); experiment: Radioligand competition binding to recombinant human A2A receptors in Sf9 cell membranes; details: Ki from competition binding, Sf9 cell membranes
Chain of recombinant human A2A receptors (P29274 whole entry, the tested form may be a part): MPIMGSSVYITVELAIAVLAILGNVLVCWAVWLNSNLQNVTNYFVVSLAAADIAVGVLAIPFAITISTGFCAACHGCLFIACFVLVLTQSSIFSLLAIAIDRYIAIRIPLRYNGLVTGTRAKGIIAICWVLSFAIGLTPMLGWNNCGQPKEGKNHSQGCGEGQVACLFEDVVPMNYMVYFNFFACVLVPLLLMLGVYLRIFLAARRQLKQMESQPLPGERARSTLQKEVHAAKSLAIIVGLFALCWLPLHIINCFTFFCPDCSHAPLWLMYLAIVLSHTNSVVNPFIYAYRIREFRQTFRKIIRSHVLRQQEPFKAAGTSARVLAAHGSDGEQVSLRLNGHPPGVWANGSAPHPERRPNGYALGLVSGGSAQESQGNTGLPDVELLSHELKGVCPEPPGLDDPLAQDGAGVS
Procedure: as §1, §2

[2] = test system: liver ischemia/reperfusion injury; experiment: Liver ischemia/reperfusion injury, serum GPT; assay type: in vivo, Mice; details: administered 6 hours prior to I/R injury; serum GPT 24 hours later; vs. a control compound and ATL146e; FIG. 17
Procedure: Mice were anesthetized by intraperitoneal injection of ketamine 100 mg/kg and xylazine 10 mg/kg. Glycopyrrolate (Robinul-V™) 0.05 mg/kg was delivered subcutaneously before the operation. The ambient temperature was controlled in the range of 24° C. to 26° C. Mice were placed on a 37° C. heat pad with their core temperature monitored by a TH-8 Thermalert™ Monitoring Thermometer (Physitemp) and maintained at 36-37° C. by a TCAT-1A Temperature Control and Alarm Unit (Physitemp) during the entire procedure. After midline laparotomy, a microaneurysm clip was applied to the hepatic triad above the bifurcation to clamp the flow of the hepatic artery, portal vein, and bile duct. […]
Serum GPT (ALT) levels were measured using a Transaminase kit (505, Sigma). Briefly, 20 μL serum sample was mixed with 100 (L pre-heated Alanine-α-KG substrate and incubated in a 37° C. water bath for 30 minutes. Then we added 100 (L Sigma Color Reagent to the reaction and left it at room temperature for 20 minutes. We stopped the reaction with 1.0 ml 0.4N sodium hydroxide solution. Absorbance of each sample at 505 nm was measured and converted into SF unit/ml.
The test compounds were administered 6 hours prior to I/R injury. Tissue protection is measured by amount of Serum GPT present in the in a serum sample 24 hours later, with smaller GPT concentrations indicating better liver function.

A3 AR = target: T2, A3 AR (Homo sapiens, UniProt P0DMS8); experiment: Radioligand competition binding (125I-ABA) to human A3 AR in HEK 293 cell membranes; details: for Ki: Ki from competition binding, 125I-ABA, HEK 293 cell membranes; for A3/A2A: selectivity ratio A3 over A2A
T2 sequence (P0DMS8 1-318): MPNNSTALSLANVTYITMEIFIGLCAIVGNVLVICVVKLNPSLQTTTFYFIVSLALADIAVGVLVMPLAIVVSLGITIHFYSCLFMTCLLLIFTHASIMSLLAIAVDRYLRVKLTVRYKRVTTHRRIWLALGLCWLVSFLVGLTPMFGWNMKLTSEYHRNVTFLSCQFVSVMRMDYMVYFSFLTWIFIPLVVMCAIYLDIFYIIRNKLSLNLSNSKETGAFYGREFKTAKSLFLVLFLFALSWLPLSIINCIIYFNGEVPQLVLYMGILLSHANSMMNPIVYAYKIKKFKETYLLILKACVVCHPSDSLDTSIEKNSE

| SMILES | EC50 (human neutrophils) | PMN oxid + roli (-log EC50) (human neutrophils) | Ki (human A1 AR; A1 ± SEM) | A1/A2A (human A1 AR) | Ki ([1]; A2A ± SEM) | duration of action for liver tissue protection (Serum GPT) [2] | Ki (A3 AR; A3 ± SEM) | A3/A2A (A3 AR) | PMN oxid (-log EC50) (human neutrophils) | Ki (human A1 AR; read-out: A1 ± SEM) | Ki ([1]; read-out: A2A ± SEM) | Ki (A3 AR; read-out: A3 ± SEM) |
| --- | --- | --- | --- | --- | --- | --- | --- | --- | --- | --- | --- | --- |
| CCNC(=O)[C@H]1O[C@@H](n2cnc3c(N)nc(C#C[C@]4(O)CCC[C@@H](C)C4)nc32)C(O)C1O (stereo in doubt) [JR-3223, 5-[6-Amino-2-(1-hydroxy-3-methylcyclohexylethynyl)purin-9-yl]-3,4-dihydroxytetrahydrofuran-2-carboxylic acid ethylamide] | 0.339 nM | 10.15 | 4.8 ± 0.3 nM | 5.2 | 0.92 ± 0.2 nM | longer duration of action | 0.7 ± 0.02 nM | 0.8 | – | – | – | – |
| CCNC(=O)[C@H]1O[C@@H](n2cnc3c(N)nc(C#CCC4CCC(C(N)=O)CC4)nc32)C(O)C1O (stereo in doubt) [JR-3055, 5-{6-Amino-2-[3-(4-carbamoyl-cyclohexyl)-prop-1-ynyl]purin-9-yl}-3,4-dihydroxytetrahydrofuran-2-carboxylic acid ethylamide] | 31.6 nM | 8.64 | 36 ± 2 nM | 20.0 | 1.8 ± 0.2 nM | – | 28 ± 3 nM | 15.6 | – | – | – | – |
| CCNC(=O)C1OC(n2cnc3c(N)nc(C#CC(O)C4CCCCC4)nc32)C(O)C1O (single isomer, unassigned) [JR-3159B] | – | 10.36 | – | 5.7 | – | – | – | 7.4 | 9.44 | 2 ± 0.21 nM | 0.4 ± 0.07 nM | 2.6 ± 0.3 nM |
| CCNC(=O)[C@H]1O[C@@H](n2cnc3c(N)nc(C#CC(O)(C4CCCCC4)C4CCCCC4)nc32)C(O)C1O (stereo in doubt) [JR-3139, 5-[6-Amino-2-(3,3-dicyclohexyl-3-hydroxy-prop-1-ynyl)-purin-9-yl]-3,4-dihydroxytetrahydrofuran-2-carboxylic acid ethylamide] | 4070 nM | 6.75 | 801 ± 99 nM | 4.8 | 166 ± 42 nM | – | 83.7 ± 30 nM | 0.5 | – | – | – | – |
| CCNC(=O)[C@H]1O[C@@H](n2cnc3c(N)nc(C#CCC4CCN(C(=O)OC)CC4)nc32)C(O)C1O (stereo in doubt) [JR-4007, 4-{3-[6-Amino-9-(5-ethylcarbamoyl-3,4-dihydroxytetrahydrofuran-2-yl)-9H-purin-2-yl]-prop-2-ynyl}-piperidine-1-carboxylic acid methyl ester] | 1.7 nM | – | 34.6 ± 1.4 nM | 35.7 | 0.97 ± 0.33 nM | – | 65.2 nM | 67.2 | – | – | – | – |
| CCNC(=O)[C@H]1O[C@@H](n2cnc3c(N)nc(C#CCC4CCC(CC)CC4)nc32)C(O)C1O (stereo in doubt) [JR-3087, 5-{6-Amino-2-[3-(4-ethyl-cyclohexyl)-prop-1-ynyl]-purin-9-yl}-3,4-dihydroxytetrahydrofuran-2-carboxylic acid ethylamide] | 46.8 nM | 8.51 | 20.3 ± 4.5 nM | 9.2 | 2.2 ± 0.2 nM | – | 17.8 ± 5.5 nM | 8.1 | – | – | – | – |
| CCNC(=O)[C@H]1O[C@@H](n2cnc3c(N)nc(C#CCN4CCN(C(=O)OC(C)(C)C)CC4)nc32)C(O)C1O (stereo in doubt) [JR-3281, 4-{3-[6-Amino-9-(5-ethylcarbamoyl-3,4-dihydroxytetrahydrofuran-2-yl)-9H-purin-2-yl]-prop-2-ynyl}-piperazine-1-carboxylic acid tert-butyl ester] | 6.46 nM | – | 9.15 ± 1.35 nM | 3.9 | 2.36 ± 0.5 nM | – | 38 nM | 16.1 | – | – | – | – |
| CCNC(=O)C1OC(n2cnc3c(N)nc(C#CC4(O)CCCCC4)nc32)C(O)C1O (centres unmarked) [JR-3089] | – | 9.9 | – | 10.8 | – | – | – | 6.7 | 9.14 | 7.1 ± 1.1 nM | 0.7 ± 0.05 nM | 4.4 ± 11 nM |
| CCNC(=O)[C@H]1O[C@@H](n2cnc3c(N)nc(C#CCC4CCC(CN(C)C)CC4)nc32)C(O)C1O (stereo in doubt) [JR-3023, 5-{6-Amino-2-[3-(4-dimethylaminomethyl-cyclohexyl)-prop-1-ynyl]-purin-9-yl}-3,4-dihydroxytetrahydrofuran-2-carboxylic acid ethylamide] | 42.7 nM | 8.66 | 14 ± 0.8 nM | 3.7 | 3.8 ± 2 nM | – | 61 ± 6 nM | 16.3 | – | – | – | – |
| CCNC(=O)[C@H]1O[C@@H](n2cnc3c(N)nc(C#CCC4CCC(CO)CC4)nc32)C(O)C1O (stereo in doubt) [ATL-2037, 5-{6-Amino-2-[3-(4-hydroxymethyl-cyclohexyl)-prop-1-ynyl]-purin-9-yl}-3,4-dihydroxytetrahydrofuran-2-carboxylic acid ethylamide] | 32.4 nM | 8.7 | 19 ± 1 nM | 12.6 | 1.5 ± 0.01 nM | – | 76 ± 6 nM | 50.3 | – | – | – | – |
| COC(=O)C1CCC(CC#Cc2nc(N)c3ncn(C4OC(CO)C(O)C4O)c3n2)CC1 (centres unmarked) [JR-2145] | – | 8.57 | – | 42.2 | – | – | – | 150.7 | 7.19 | 28.3 ± 7.3 nM | 0.7 ± 0.16 nM | 101 ± 22 nM |
| CCNC(=O)[C@H]1O[C@@H](n2cnc3c(N)nc(C#CCN4CCN(C(=O)OCC)CC4)nc32)C(O)C1O (stereo in doubt) [JR-3213, 4-{3-[6-Amino-9-(5-ethylcarbamoyl-3,4-dihydroxytetrahydrofuran-2-yl)-9H-purin-2-yl]-prop-2-ynyl}-piperazine-1-carboxylic acid ethyl ester] | 3.47 nM | 9.11 | 15.8 ± 0.48 nM | 8.3 | 1.9 ± 0.4 nM | – | 42.3 ± 18.3 nM | 22.3 | – | – | – | – |
